ChEMBL document CHEMBL5241097, “Synthetically-tailored and nature-derived dual COX-2/5-LOX inhibitors: Structural aspects and SAR” (Eur J Med Chem, 2021)
pIC50: −log10 of the molar value. Converted amounts (≈) assume the structure as drawn.

Assays:
[1] = molecular target: T1, Prostaglandin G/H synthase 2 (Homo sapiens, UniProt P35354); test: Inhibition of recombinant human COX-2 by enzyme immune assay
T1 sequence (P35354 whole entry): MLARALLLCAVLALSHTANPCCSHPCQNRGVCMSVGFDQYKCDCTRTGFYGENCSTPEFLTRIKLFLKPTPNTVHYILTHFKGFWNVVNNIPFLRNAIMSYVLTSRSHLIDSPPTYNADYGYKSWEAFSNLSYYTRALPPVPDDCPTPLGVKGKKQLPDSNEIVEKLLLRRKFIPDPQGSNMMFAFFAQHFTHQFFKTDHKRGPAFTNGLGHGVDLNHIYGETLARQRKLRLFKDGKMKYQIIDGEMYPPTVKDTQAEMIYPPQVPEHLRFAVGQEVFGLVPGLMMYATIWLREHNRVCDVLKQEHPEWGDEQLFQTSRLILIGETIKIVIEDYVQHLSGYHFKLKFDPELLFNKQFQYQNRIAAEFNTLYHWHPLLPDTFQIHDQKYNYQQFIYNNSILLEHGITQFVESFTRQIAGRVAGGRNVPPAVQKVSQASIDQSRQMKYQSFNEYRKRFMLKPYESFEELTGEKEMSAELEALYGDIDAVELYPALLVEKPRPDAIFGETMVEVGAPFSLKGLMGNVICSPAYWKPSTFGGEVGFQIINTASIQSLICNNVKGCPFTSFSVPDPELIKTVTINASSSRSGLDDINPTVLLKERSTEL

[2] = Selectivity index, ratio IC50 for inhibition of ovine COX-1 to IC50 for inhibition of recombinant human COX-2
[3] = molecular target: T2, Polyunsaturated fatty acid 5-lipoxygenase (Homo sapiens, UniProt P09917); test: Inhibition of 5-LOX (unknown origin) by enzyme immune assay
T2 sequence (P09917 whole entry): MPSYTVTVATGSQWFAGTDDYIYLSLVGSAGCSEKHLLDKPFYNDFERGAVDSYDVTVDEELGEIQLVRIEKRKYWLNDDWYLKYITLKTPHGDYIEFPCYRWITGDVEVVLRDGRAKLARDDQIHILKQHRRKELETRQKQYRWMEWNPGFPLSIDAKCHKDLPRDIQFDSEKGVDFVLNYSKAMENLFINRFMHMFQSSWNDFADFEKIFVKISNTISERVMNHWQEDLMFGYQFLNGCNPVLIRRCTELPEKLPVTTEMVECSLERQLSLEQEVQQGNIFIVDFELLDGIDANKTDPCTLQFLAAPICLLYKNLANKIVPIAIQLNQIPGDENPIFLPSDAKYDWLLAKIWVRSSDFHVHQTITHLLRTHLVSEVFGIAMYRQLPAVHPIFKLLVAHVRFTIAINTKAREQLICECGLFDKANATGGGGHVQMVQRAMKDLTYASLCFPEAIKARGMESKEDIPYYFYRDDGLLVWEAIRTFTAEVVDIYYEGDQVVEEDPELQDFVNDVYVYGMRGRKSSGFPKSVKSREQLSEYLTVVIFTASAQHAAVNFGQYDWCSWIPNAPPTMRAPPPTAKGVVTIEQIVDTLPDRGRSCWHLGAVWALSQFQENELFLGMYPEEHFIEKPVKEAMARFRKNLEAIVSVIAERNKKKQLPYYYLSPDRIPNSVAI

Rattus norvegicus [4] = test: Antiinflammatory activity in Wistar rat carragenan-induced paw edema model assessed as reduction in edema thickness at 50 mg/kg, po and measured after 2 hrs; format: functional; set-up: scale not given: the % may be the effect or the level left
[5] = molecular target: T2, Polyunsaturated fatty acid 5-lipoxygenase; test: Inhibition of 5-LOX (unknown origin) by colorimetric assay
[6] = molecular target: T1, Prostaglandin G/H synthase 2; test: Inhibition of COX-2 (unknown origin) using arachidonic acid as substrate preincubated for 5 mins followed by substrate addition by colorimetric assay
Rattus norvegicus [7] = test: Antiinflammatory activity in carragenan-induced paw edema rat model assessed as reduction in edema thickness at 28 microg/kg, ip and measured after 4 hrs by digital Vernier caliper analysis; format: functional; set-up: scale not given: the % may be the effect or the level left; conditions: dose 28 µg/kg
[8] = molecular target: T1, Prostaglandin G/H synthase 2; test: Inhibition of COX-2 (unknown origin)
[9] = molecular target: T2, Polyunsaturated fatty acid 5-lipoxygenase; test: Inhibition of 5-LOX (unknown origin)
[10] = Antioxidant activity assessed as DPPH radical scavenging activity by spectrophotometric analysis; format: functional
[11] = molecular target: T2, Polyunsaturated fatty acid 5-lipoxygenase; test: Inhibition of 5-LOX (unknown origin) by spectrophotometric method
[12] = molecular target: T1, Prostaglandin G/H synthase 2; test: Inhibition of COX-2 (unknown origin) by 2,7-dichlorofluorescein dye based spectrophotometric method
[13] = molecular target: T1, Prostaglandin G/H synthase 2; test: Inhibition of recombinant human COX-2 using arachidonic acid as substrate preincubated for 10 mins followed by substrate addition and measured after 2 mins by Ellman's reagent based ELISA
[14] = molecular target: T2, Polyunsaturated fatty acid 5-lipoxygenase; test: Inhibition of recombinant human 5-LOX using arachidonic acid as substrate incubated for 10 mins by spectrophotometric analysis
Homo sapiens = species on record: Homo sapiens; test: Selectivity index, ratio of IC50 for inhibition of human COX1 to IC50 for inhibition of human COX2
[15] = molecular target: T2, Polyunsaturated fatty acid 5-lipoxygenase; test: Inhibition of 5-LOX (unknown origin) using linoleic acid as substrate preincubated for 5 mins followed by substrate addition by spectrophotometric assay
[16] = Inhibition of soybean 5-LOX using linoleic acid as substrate by spectrophotometric analysis; set-up: species or system Glycine max
[17] = molecular target: T1, Prostaglandin G/H synthase 2; test: Inhibition of COX-2 (unknown origin) using arachidonic acid as substrate preincubated for 15 mins followed by substrate addition by colorimetric assay
[18] = molecular target: T1, Prostaglandin G/H synthase 2; test: Inhibition of recombinant human COX-2 using arachidonic acid as substrate by ELISA
[19] = molecular target: T2, Polyunsaturated fatty acid 5-lipoxygenase; test: Inhibition of 5-LOX (unknown origin) by fluorometric analysis
[20] = molecular target: T3, Prostaglandin G/H synthase 1 (Homo sapiens, UniProt P23219); test: Inhibition of recombinant human COX-1 using arachidonic acid as substrate by ELISA
[21] = molecular target: T1, Prostaglandin G/H synthase 2; test: Inhibition of recombinant human COX-2 using arachidonic acid as substrate preincubated for 10 mins followed by substrate addition and measured after 2 mins by ELISA
[22] = Inhibition of potato 5-LOX using linoleic acid as substrate preincubated for 5 mins followed by substrate addition and measured after 5 mins by spectrophotometric assay; set-up: species or system Solanum tuberosum
[23] = molecular target: T3, Prostaglandin G/H synthase 1; test: Inhibition of human COX-1 using arachidonic acid as substrate preincubated for 10 mins followed by substrate addition and measured after 2 mins by ELISA
Rattus norvegicus [24] = test: Antiinflammatory activity in Wistar rat assessed as reduction in carragenan-induced paw edema at 10 mg/kg, po for 7 days followed by carrageenan stimulation and measured upto 6 hrs by vernier caliper method; format: functional; set-up: scale not given: the % may be the effect or the level left; conditions: time 7 day

T3 sequence (P23219 whole entry): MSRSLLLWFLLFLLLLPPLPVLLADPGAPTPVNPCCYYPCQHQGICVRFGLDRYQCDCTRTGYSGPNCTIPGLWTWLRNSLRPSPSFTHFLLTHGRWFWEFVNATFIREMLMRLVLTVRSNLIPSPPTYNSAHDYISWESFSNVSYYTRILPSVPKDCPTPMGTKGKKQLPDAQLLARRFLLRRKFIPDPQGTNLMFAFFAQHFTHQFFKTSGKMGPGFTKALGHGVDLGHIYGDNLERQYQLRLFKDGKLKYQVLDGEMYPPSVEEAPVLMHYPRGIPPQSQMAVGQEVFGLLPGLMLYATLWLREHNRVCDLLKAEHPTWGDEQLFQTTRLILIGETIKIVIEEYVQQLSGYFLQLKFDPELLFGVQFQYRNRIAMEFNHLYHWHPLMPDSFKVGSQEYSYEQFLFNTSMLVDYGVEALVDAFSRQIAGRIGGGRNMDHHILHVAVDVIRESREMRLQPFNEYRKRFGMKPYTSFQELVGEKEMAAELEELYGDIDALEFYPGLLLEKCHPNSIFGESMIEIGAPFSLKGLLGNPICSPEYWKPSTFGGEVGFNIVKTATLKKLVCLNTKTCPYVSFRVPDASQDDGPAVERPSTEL

## O=C(NC1CCCCC1)c1cc(/N=C/c2cc(O)ccc2O)ccc1O
[1]
  pIC50: 6.96
[2]
  Ratio IC50: 120
[3]
  pIC50: 4.95

## CC1=NN(c2ccc(S(N)(=O)=O)cc2)C(=O)/C1=N/Nc1ccc(C(=O)O)cc1
Rattus norvegicus [4]
  Activity: 72.72%
[5]
  pIC50: 6.28
[6]
  pIC50: 6.11

## CCCCCCNC(=O)c1cc(NCc2cc(O)ccc2O)ccc1O
Rattus norvegicus [7]
  Activity: 40.05%
[1]
  pIC50: 7.00
[2]
  Ratio IC50: 145
[3]
  pIC50: 4.92

## O=C(O)c1ccc(O)c(O)c1 [PROTOCATECHUIC ACID]
[8]
  pIC50: 4.60

## O=C1N/C(=N\c2nc(-c3ccccc3)cs2)S/C1=C\c1ccc(Cl)cc1
[9]
  pIC50: 4.27

## O=C(NC1CCCCC1)c1cc(NCc2cc(O)ccc2O)ccc1O
Rattus norvegicus [7]
  Activity: 114.12%
[1]
  pIC50: 7.00

## CCC[C@H](O)CCOC(=O)CC[C@]1(C)C=CC[C@@H](C)[C@@]12C=CC(C)(CC)O2 (stereo not given in full)
[10]
  IC50: 0.59 mg/mL (≈ 1560 µM)
[11]
  pIC50: 2.69
[12]
  pIC50: 2.73

## Nc1ccc(O)c(C(=O)NC2CCCCC2)c1
Rattus norvegicus [7]
  Activity: 102%

## N=C1/C(=N\Nc2ccc(S(N)(=O)=O)cc2)C(N)=NN1c1ccccc1C(=O)O
Rattus norvegicus [4]
  Activity: 15%
[5]
  pIC50: 5.56
[6]
  pIC50: 5.95

## CCCCNC(=O)c1cc(NCc2cc(O)ccc2O)ccc1O
Rattus norvegicus [7]
  Activity: 40.05%
[1]
  pIC50: 7.00
[2]
  Ratio IC50: 135
[3]
  pIC50: 4.98

## CC1=CCCC2C1(C)CCC(C)C2(C)CC/C(=C\C(=O)O)CO (stereo not given)
[13]
  pIC50: 4.90
[14]
  pIC50: 4.52

## Cc1c(C(=O)N2CCN(c3ccccc3)CC2)nc2ccc(Cl)cc2c1O
Homo sapiens
  Ratio IC50: 7.61
[15]
  pIC50: 5.23

## O=C(c1ccc(-c2nc(CSc3nc4ccccc4s3)no2)cc1)N1CCOCC1
[16]
  pIC50: 5.25
[17]
  pIC50: 5.30

## COc1ccc(/C=c2\c(=O)[nH]n3c(=O)c4ccccc4nc23)cc1OC
[18]
  pIC50: 6.55
[19]
  pIC50: 6.00
[20]
  pIC50: 6.16

## O=C(/N=C1\SC=C(c2ccc([N+](=O)[O-])cc2)C1c1ccccc1)c1cccc2ccccc12 (stereo not given)
Homo sapiens
  Ratio IC50: 90
[15]
  pIC50: 6.44
[21]
  pIC50: 7.10

## COc1ccc(-c2nc(-c3cn(C)c4ccccc34)c(C(=O)c3ccc(C#N)cc3)s2)cc1OC
[8]
  pIC50: 5.68
[9]
  pIC50: 5.86

## COc1cc(/C=c2\c(=O)[nH]n3c(=O)c4ccccc4nc23)cc(OC)c1OC
[18]
  pIC50: 7.33
[19]
  pIC50: 5.64
[20]
  pIC50: 6.18

## Cc1ccc(-c2nc(N(c3ccccc3)c3ccccc3)sc2C(=O)c2cccs2)cc1
Homo sapiens
  Ratio IC50: 61.7
[22]
  pIC50: 6.42
[23]
  pIC50: 5.26
Rattus norvegicus [24]
  Activity: 60.82%

## COc1cc(C(=O)O)cc(O)c1O
[8]
  pIC50: 4.63

## CC(C)NC(=O)c1cc(N)ccc1O
[3]
  pIC50: 5.47

## CC1=NN(c2ccc(S(N)(=O)=O)cc2)C(=O)/C1=N/Nc1ccc(S(N)(=O)=O)cc1
[5]
  pIC50: 6.24
[6]
  pIC50: 6.18
